Measured values taken from patent US20160130278A1 (TAISHO PHARMACEUTICAL CO., LTD, priority 2013, published 2016).

Molecular target: T1, human type 1 glycine transporter (GlyT1) (Homo sapiens, UniProt P48067)
T1 construct: T98G cells (glioma cells) expressing human type 1 glycine transporter (GlyT1) were used
T1 sequence (P48067 1-706): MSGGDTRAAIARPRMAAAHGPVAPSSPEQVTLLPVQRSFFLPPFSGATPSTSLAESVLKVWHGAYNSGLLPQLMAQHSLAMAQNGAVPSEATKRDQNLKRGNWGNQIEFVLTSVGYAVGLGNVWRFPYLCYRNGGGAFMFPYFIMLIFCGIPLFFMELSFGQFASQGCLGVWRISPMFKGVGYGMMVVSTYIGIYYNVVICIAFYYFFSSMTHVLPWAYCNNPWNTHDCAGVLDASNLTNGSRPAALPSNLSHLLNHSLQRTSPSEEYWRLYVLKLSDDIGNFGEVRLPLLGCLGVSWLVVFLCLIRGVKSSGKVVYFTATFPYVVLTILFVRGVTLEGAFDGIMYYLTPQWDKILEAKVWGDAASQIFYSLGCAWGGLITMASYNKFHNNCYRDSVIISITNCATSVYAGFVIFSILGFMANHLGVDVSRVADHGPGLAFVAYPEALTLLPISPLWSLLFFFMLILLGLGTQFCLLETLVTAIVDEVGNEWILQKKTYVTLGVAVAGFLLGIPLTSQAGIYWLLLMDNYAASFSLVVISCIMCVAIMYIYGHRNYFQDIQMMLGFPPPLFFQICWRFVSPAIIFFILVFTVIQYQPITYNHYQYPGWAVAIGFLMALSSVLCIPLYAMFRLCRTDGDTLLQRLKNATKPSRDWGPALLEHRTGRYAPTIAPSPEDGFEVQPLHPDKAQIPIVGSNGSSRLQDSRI
Experiment: Glycine uptake inhibition experiment ([3H]glycine uptake)
Format: cell-based
Settings: GlyT1
Procedure: Glycine Uptake Inhibition Experiment
A glycine uptake experiment was conducted in accordance with the method published in Neuron, 8, 927-935, 1992. In the experiment, T98G cells (glioma cells) expressing human type 1 glycine transporter (GlyT1) were used. The T98G cells were seeded in a 96-well plate at 2.0×10^4 cells/well and cultured overnight in a CO2 incubator. The test substance was dissolved in a 100% DMSO solution and then dissolved in a 10 mM HEPES buffer solution (pH 7.4) containing 150 mM sodium chloride, 1 mM calcium chloride, 5 mM potassium chloride, 1 mM magnesium chloride, 10 mM glucose and 0.2% bovine serum albumin. After removing the cell culture medium, the test substance was subjected to a 10-min pretreatment. Subsequently, the test substance and [^3H] glycine (final concentration: 250 nM) were added to the cells and reaction was performed at room temperature for 15 minutes. After the end of the reaction, the extracellular fluid was aspirated with a manifold to remove excess labeled glycine present outside the cells, and then the cells were lysed with a 0.5 M aqueous sodium hydroxide solution. The glycine content in the cells was determined by measuring the radioactivity in the cell lysate with a liquid scintillation counter. Glycine uptake in the presence of 10 μM ALX5407 was defined as non-specific uptake, and the value calculated by subtracting the amount of the non-specific uptake from the total uptake in the absence of 10 μM ALX5407 was defined as specific uptake. In addition, glycine uptake inhibitory activity (IC50 value) was calculated from an inhibition curve at the concentrations of each test substance ranging from 10^−9 to 10^−5 M. It should be noted that ALX5407 is an HCl salt of N-[(3R)-3-([1,1′-biphenyl]-4-yloxy)-3-(4-fluorophenyl)propyl]-N-methylglycine.

SMILES | IC50 [nM]
O=C(NC(c1cccc(Cl)c1Cl)C1(O)CCC(F)(F)CC1)c1nccc(C(F)(F)F)c1Cl (centres unmarked) [Compound 131, 3-chloro-N-[(2,3-dichlorophenyl)(4,4-difluoro-1-hydroxycyclohexyl)methyl]-4-(trifluoromethyl)pyridine-2-carboxamide] | 160
CCn1cc(-c2cccc(C(NC(=O)c3cccc(C(F)(F)F)c3C)C3(O)CCC(F)(F)CC3)c2)cn1 (single isomer, unassigned) [Compound 150, N-{(4,4-difluoro-1-hydroxycyclohexyl)[3-(1-ethyl-1H-pyrazol-4-yl)phenyl]methyl}-2-methyl-3-(trifluoromethyl)benzamide] | 840
CCn1cc(-c2cccc([C@H](NC(=O)c3cccc(C(F)(F)F)c3Cl)C3(O)CCCC3)c2)cn1 [Compound 74, 2-chloro-N-[(S)-[3-(1-ethyl-1H-pyrazol-4-yl)phenyl](1-hydroxycyclopentyl)methyl]-3-(trifluoromethyl)benzamide] | 43
O=C(NC(c1cccc(Cl)c1F)C1(O)CCC(F)(F)CC1)c1nccc(C(F)(F)F)c1Cl (single isomer, unassigned) [Compound 168, 3-chloro-N-[(3-chloro-2-fluorophenyl)(4,4-difluoro-1-hydroxycyclohexyl)methyl]-4-(trifluoromethyl)pyridine-2-carboxamide] | 57
O=C(NC(c1cccc(F)c1Cl)[C@]1(O)CC[C@@H](F)CC1)c1cnccc1Cl (single isomer, unassigned) [Compound 250, 4-chloro-N-[(2-chloro-3-fluorophenyl)(cis-4-fluoro-1-hydroxycyclohexyl)methyl]pyridine-3-carboxamide] | 1900
O=C(NC(c1cccnc1Cl)C1(O)CCC(F)(F)CC1)c1nccc(C(F)(F)F)c1Cl (single isomer, unassigned) [Compound 340, 3-chloro-N-[(2-chloropyridin-3-yl)(4,4-difluoro-1-hydroxycyclohexyl)methyl]-4-(trifluoromethyl)pyridine-2-carboxamide] | 320
O=C(N[C@@H](c1cccc(Br)c1)[C@]1(O)CC[C@@H](F)CC1)c1nccc(C(F)(F)F)c1Cl [Compound 110, N-[(S)-(3-bromophenyl)(cis-4-fluoro-1-hydroxycyclohexyl)methyl]-3-chloro-4-(trifluoromethyl)pyridine-2-carboxamide] | 95
CC(C)n1cc(-c2cccc(C(NC(=O)c3nccc(C(F)(F)F)c3Cl)C3(O)CCC(F)(F)CC3)c2)cn1 (single isomer, unassigned) [Compound 133, 3-chloro-N-[(4,4-difluoro-1-hydroxycyclohexyl){3-[1-(propan-2-yl)-1H-pyrazol-4-yl]phenyl}methyl]-4-(trifluoromethyl)pyridine-2-carboxamide] | 3500
Cc1ccc(C(F)(F)F)c(C(=O)NC(c2cccc(F)c2Cl)[C@]2(O)CC[C@@H](F)CC2)n1 (single isomer, unassigned) [Compound 315, N-[(2-chloro-3-fluorophenyl)(cis-4-fluoro-1-hydroxycyclohexyl)methyl]-6-methyl-3-(trifluoromethyl)pyridine-2-carboxamide] | 820
CCn1cc(-c2cccc(C(NC(=O)c3cccc(C(F)(F)F)c3F)C3(O)CCC(F)(F)CC3)c2)cn1 (centres unmarked) [Compound 181, N-[(4,4-difluoro-1-hydroxycyclohexyl)[3-(1-ethyl-1H-pyrazol-4-yl)phenyl]methyl}-2-fluoro-3-(trifluoromethyl)benzamide] | 1500
O=C(NC(c1cccnc1Cl)C1(O)CCC(F)(F)CC1)c1cc(C(F)(F)F)ncc1Cl (single isomer, unassigned) [Compound 342, 5-chloro-N-[(2-chloropyridin-3-yl)(4,4-difluoro-1-hydroxycyclohexyl)methyl]-2-(trifluoromethyl)pyridine-4-carboxamide] | 1200
O=C(NC(c1cccc(Cl)c1Cl)C1(O)CCCC1)c1nccc(C(F)(F)F)c1Cl (centres unmarked) [Compound 107, 3-chloro-N-[(2,3-dichlorophenyl)(1-hydroxycyclopentyl)methyl]-4-(trifluoromethyl)pyridine-2-carboxamide] | 39
O=C(NC(c1cccc(F)c1Cl)[C@]1(O)CC[C@@H](F)CC1)c1ccc(C(F)(F)F)cc1-n1nccn1 (single isomer, unassigned) [Compound 380, N-[(2-chloro-3-fluorophenyl)(cis-4-fluoro-1-hydroxycyclohexyl)methyl]-2-(2H-1,2,3-triazol-2-yl)-4-(trifluoromethyl)benzamide] | 270
O=C(NC(c1cc(F)cc(Cl)c1)C1(O)CCCC1)c1nccc(C(F)(F)F)c1Cl (single isomer, unassigned) [Compound 94, 3-chloro-N-[(3-chloro-5-fluorophenyl)(1-hydroxycyclopentyl)methyl]-4-(trifluoromethyl)pyridine-2-carboxamide] | 110
O=C(NC(c1cccc(Cl)n1)C1(O)CCC(F)(F)CC1)c1ccnc(C(F)(F)F)c1Cl (single isomer, unassigned) [Compound 347, 3-chloro-N-[(6-chloropyridin-2-yl)(4,4-difluoro-1-hydroxycyclohexyl)methyl]-2-(trifluoromethyl)pyridine-4-carboxamide] | 380
COc1ccc(Cl)c(C(=O)NC(c2cccc(F)c2Cl)[C@]2(O)CC[C@@H](F)CC2)c1 (single isomer, unassigned) [Compound 293, 2-chloro-N-[(2-chloro-3-fluorophenyl)(cis-4-fluoro-1-hydroxycyclohexyl)methyl]-5-methoxybenzamide] | 450
O=C(NC(c1cccc(Br)c1)C1(O)CCCCC1)c1nccc(C(F)(F)F)c1Cl (single isomer, unassigned) [Compound 42, N-[(3-bromophenyl)(1-hydroxycyclohexyl)methyl]-3-chloro-4-(trilfuoromethyl)pyridine-2-carboxamide] | 38
O=C(NC(c1cc(Cl)ccn1)[C@]1(O)CC[C@@H](F)CC1)c1cc(C(F)(F)F)ncc1Cl (single isomer, unassigned) [Compound 333, 5-chloro-N-[(4-chloropyridin-2-yl)(cis-4-fluoro-1-hydroxycyclohexyl)methyl]-2-(trifluoromethyl)pyridine-4-carboxamide] | 1700
O=C(NC(c1cccc(F)n1)C1(O)CCC(F)(F)CC1)c1ccnc(C(F)(F)F)c1Cl (single isomer, unassigned) [Compound 359, 3-chloro-N-[(4,4-difluoro-1-hydroxycyclohexyl)(6-fluoropyridin-2-yl)methyl]-2-(trifluoromethyl)pyridine-4-carboxamide] | 250
O=C(NC(c1cccc(F)c1Cl)[C@]1(O)CC[C@@H](F)CC1)c1cccnc1-n1cccn1 (single isomer, unassigned) [Compound 268, N-[(2-chloro-3-fluorophenyl)(cis-4-fluoro-1-hydroxycyclohexyl)methyl]-2-(1H-pyrazol-1-yl)pyridine-3-carboxamide] | 1700

Same assay, conditions: human GlyT1

SMILES | IC50 [nM]
CS(=O)(=O)c1cnc(C(F)(F)F)cc1C(=O)NC(c1ccccc1Cl)C1(O)CCC(F)(F)CC1 (single isomer, unassigned) [Compound 403, N-[(2-chlorophenyl)(4,4-difluoro-1-hydroxycyclohexyl)methyl]-5-(methylsulfonyl)-2-(trifluoromethyl)pyridine-4-carboxamide] | 120
O=C(NC(c1cccc(Cl)n1)C1(O)CCCC1)c1nccc(C(F)(F)F)c1Cl (single isomer, unassigned) [Compound 397, 3-chloro-N-[(6-chloropyridin-2-yl)(1-hydroxycyclopentyl)methyl]-4-(trifluoromethyl)pyridine-2-carboxamide] | 16
CS(=O)(=O)c1cc(C(F)(F)F)ccc1C(=O)NC(c1cccc(F)c1Cl)C1(O)CCC(F)(F)CC1 (single isomer, unassigned) [Compound 401, N-[(2-chloro-3-fluorophenyl)(4,4-difluoro-1-hydroxycyclohexyl)methyl]-2-(methylsulfonyl)-4-(trifluoromethyl)benzamide] | 230
